Among the data in patent US8680087B2, “Macrocyclic amides, pharmaceutical compositions, preparation methods and uses thereof” (Yuxi Winhey Bio-Tech Co., Ltd., priority 2009, dated 2014) are MIC and IC50 values, retold here.

Molecules are shown by their SMILES. In brackets after ≈: the same amount, converted by molar mass. Read-outs that look alike come from different tables or passages of the source.

Common to all, as to format: cell-based
Test [1] relates to Staphylococcus epidermidis. Description: Antibacterial activity test, standard dilution method (MIC). Particulars: 24 hr and 48 hr, trypticase soy broth, 35° C. How it is done:
(§1) The following antibacterial activity test of WH-21091 was conducted to illustrate the antibacterial activity of WH-21091. Standard dilution method was adopted, and the measurement was conducted under 35° C. After culturing for 24 hours, the minimum inhibition concentrations (MICs) of WH-21091 were obtained.

Test [2] concerns Escherichia coli. The test is described as above. Particulars: 24 hr and 48 hr, trypticase soy broth, 35° C. How it is done: as §1
The subject of test [3] is Pseudomonas aeruginosa. The description is as above. Particulars: 24 hr and 48 hr, trypticase soy broth, 35° C. How it is done: as §1
In test [4] the test system is S. aureus MSRA (clinical isolates of methicilllin-resistant strains). The description is as above. Particulars: Staphylococcus aureus. Here is the method: as §1
Test [5] relates to Streptococcus pyogenes. The description is as above. Particulars: 24 hr and 48 hr, trypticase soy broth, 35° C. How it is done: as §1
Test [6] concerns Enterococcus faecalis. Described as above. Particulars: 24 hr and 48 hr, trypticase soy broth, 35° C. Here is the method:
as §1

Test [7] concerns cervix cancer Hela cells. Description: In vitro antitumor activity test (method of Skehan et al.). Particulars: Homo sapiens. How it is done: (§2) Following the method described by Skehan et al. (1990), in vitro antitumor activity tests of WH-21091 on human lung cancer H460, breast cancer MCF-7 and cervix cancer Hela cells were conducted.
Test [8] relates to human lung cancer H460 cells. Described as above. Particulars: NCI-H460. How it is done:
as §2

Test [9] relates to breast cancer MCF-7 cells. Described as above. Particulars: Homo sapiens, MCF7; MCF-7 breast cancer cells. Here is the method:
as §2

The term MIC denotes the least concentration at which growth counts as inhibited. `CC[C@H]1OC(=O)[C@H](C)[C@@H](O[C@H]2C[C@@](C)(OC)[C@@H](O)[C@H](C)O2)[C@H](C)[C@@H](O[C@@H]2O[C@H](C)C[C@H](N(C)C)[C@H]2O)[C@](C)(O)C[C@@H](C)C(=O)[C@H](C)[C@@H](O)[C@]1(C)O` [erythromycin, reference compound]: the minimum inhibitory concentration (MIC) in test [1] was 0.25 µg/mL (≈ 0.341 µM); in [2], 1 µg/mL (≈ 1.36 µM); in [3], > 32 µg/mL; in test [4], > 32 µg/mL; in test [5] it was 0.03 µg/mL (≈ 0.0409 µM); in test [6] it was > 32 µg/mL.

In general, IC50 refers to the point on the concentration scale where inhibition reaches its midpoint. High values mean lower potency, low ones higher potency. Regarding `CC1CC(C)CC(C(O)Cc2cccc(O)c2C(=O)O)NC(=O)C(O)C(O)C(O)C1` (stereo not drawn) [WH-21091], the IC50 in [7] was determined as 0.24 µg/mL (≈ 0.564 µM); in [8], 0.1 µg/mL (≈ 0.235 µM); in [9], 0.81 µg/mL (≈ 1.9 µM). Moreover, the MIC in test [1] is 8 µg/mL (≈ 18.8 µM); in test [2], 4 µg/mL (≈ 9.4 µM); in test [3], > 32 µg/mL; in test [4] (S. aureus MSRA, clinical isolates of methicilllin-resistant strains, 24 hr and 48 hr, trypticase soy broth, 35° C., read-out: MIC) it was 4 µg/mL (≈ 9.4 µM); in test [5], 4 µg/mL (≈ 9.4 µM); in test [6], 32 µg/mL (≈ 75.2 µM).
